Measured values as given in patent EP3041353B1, “COMPOSITIONS COMPRISING BACTERIOSTATIC AGENTS AND BRILLIANT BLUE G” (priority 2013, dated 2015).

Key:
P2X7-Rezeptor = molecular target: T1, P2X7-Rezeptor (Rattus norvegicus, UniProt Q64663); conditions: Jiang et al. 2000; cited from earlier work
T1 sequence (Q64663 1-595): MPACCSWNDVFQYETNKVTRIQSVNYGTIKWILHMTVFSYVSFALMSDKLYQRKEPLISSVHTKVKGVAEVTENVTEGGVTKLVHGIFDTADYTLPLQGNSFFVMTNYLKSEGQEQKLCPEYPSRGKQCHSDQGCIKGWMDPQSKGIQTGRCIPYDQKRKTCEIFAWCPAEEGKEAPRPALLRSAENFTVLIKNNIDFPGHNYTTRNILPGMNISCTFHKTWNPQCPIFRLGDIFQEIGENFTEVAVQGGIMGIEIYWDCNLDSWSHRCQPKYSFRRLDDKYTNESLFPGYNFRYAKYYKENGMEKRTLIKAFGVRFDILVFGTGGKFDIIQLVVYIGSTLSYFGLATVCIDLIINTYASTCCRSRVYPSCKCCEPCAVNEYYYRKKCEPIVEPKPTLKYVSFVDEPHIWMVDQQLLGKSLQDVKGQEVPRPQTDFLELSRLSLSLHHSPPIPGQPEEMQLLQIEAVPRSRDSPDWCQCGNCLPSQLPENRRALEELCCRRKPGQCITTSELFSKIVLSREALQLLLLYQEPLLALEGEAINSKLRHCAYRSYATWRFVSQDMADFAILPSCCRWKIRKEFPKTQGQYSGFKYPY

Bacillus megaterium = assay: Bacteriostatic effect of Octenidin with BBG: turbidity after 24 h incubation; type: cell-based; parameters: key: +: Bakterienwachstum nach 24 h Inkubation; -: kein Bakterienwachstum nach 24 h Inkubation
Method: (§1) Zur Untersuchung des Einflusses von BBG auf die bakteriostatische Wirkung wurden Bakterien 24 h mit erfindungsgemäßen Zusammensetzungen, Benzalkoniumchlorid (BAK) und Octenidin (Oct) als Bakteriostatikum enthielten, inkubiert. Wenn sich die Inkubationsmischung trübte, wurde das als Bakterienwachstum interpretiert. Zum Vergleich wurde Brillantblau R (BBR) anstelle von BBG eingesetzt. Die Ergebnisse sind in den Tabellen 1-4 wiedergegeben. Tabelle 1: Einfluss von BBG und BBR auf die bakteriostatische Wirkung von BAK gegenüber Escherichia coli (E. coli), + = Bakterienwachstum nach 24 h Inkubation, - = kein Bakterienwachstum nach 24 h Inkubation, R = Brillantblau R (BBR), G = Brillantblau G (BBG).
(§2) Tabelle 4: Einfluss von BBG auf die bakteriostatische Wirkung von Octenidin (Oct) gegenüber Gram-positiven Bakterien., + = Bakterienwachstum nach 24 h Inkubation, - = kein Bakterienwachstum nach 24 h Inkubation, +/- = geringes Wachstum nach 24 h Inkubation, BBG = Brillantblau G.

Paenibacillus sp. = assay: as above; type: cell-based; parameters: key: +: Bakterienwachstum nach 24 h Inkubation; -: kein Bakterienwachstum nach 24 h Inkubation
Method: as §1, §2

In the case of `CCOc1ccc(Nc2ccc(C(=C3C=CC(=[N+](CC)Cc4cccc(S(=O)(=O)[O-])c4)C=C3C)c3ccc(N(CC)Cc4cccc(S(=O)(=O)O)c4)cc3C)cc2)cc1` [BBG, Brillantblau G], the “Hemmung des P2X7-Rezeptors” value (P2X7-Rezeptor) is listed as “spezifisch nicht-kompetitiv hemmt”, the “Bakterienwachstum nach 24 h Inkubation” value (Bacillus megaterium; 0,007% BBG + Octenidin 0,01%) is listed as “-” and the “Bakterienwachstum nach 24 h Inkubation” value (Bacillus megaterium; 0,007% BBG + Octenidin 0,002%) is listed as “-”. For the same molecule, the “Bakterienwachstum nach 24 h Inkubation” value (Bacillus megaterium; 0,007% BBG + Octenidin 0,003%) was “-”, the “Bakterienwachstum nach 24 h Inkubation” value (Bacillus megaterium; 0,007% BBG + Octenidin 0,005%) was “-” and the “Bakterienwachstum nach 24 h Inkubation” value (Bacillus megaterium; 0,007% BBG + Octenidin 0,007%) was “-”. The “Bakterienwachstum nach 24 h Inkubation” value (Bacillus megaterium; 0,007% BBG + Octenidin 0,009%) was “-”, the “Bakterienwachstum nach 24 h Inkubation” value (Bacillus megaterium; 0,007% BBG, Octenidin 0%) was “+” and the “Bakterienwachstum nach 24 h Inkubation” value (Bacillus megaterium; 0,015% BBG + Octenidin 0,01%) was “-”. The “Bakterienwachstum nach 24 h Inkubation” value (Bacillus megaterium; 0,015% BBG + Octenidin 0,002%) was “+”, the “Bakterienwachstum nach 24 h Inkubation” value (Bacillus megaterium; 0,015% BBG + Octenidin 0,005%) was “-” and the “Bakterienwachstum nach 24 h Inkubation” value (Bacillus megaterium; 0,015% BBG + Octenidin 0,007%) was “-”. The “Bakterienwachstum nach 24 h Inkubation” value (Bacillus megaterium; 0,015% BBG + Octenidin 0,009%) was “-”, the “Bakterienwachstum nach 24 h Inkubation” value (Bacillus megaterium; 0,015% BBG, Octenidin 0%) was “+” and the “Bakterienwachstum nach 24 h Inkubation” value (Bacillus megaterium; 0,030% BBG + Octenidin 0,01%) was “-”. The “Bakterienwachstum nach 24 h Inkubation” value (Bacillus megaterium; 0,030% BBG + Octenidin 0,002%) was “+”, the “Bakterienwachstum nach 24 h Inkubation” value (Bacillus megaterium; 0,030% BBG + Octenidin 0,003%) was “+” and the “Bakterienwachstum nach 24 h Inkubation” value (Bacillus megaterium; 0,030% BBG + Octenidin 0,009%) was “-”. The “Bakterienwachstum nach 24 h Inkubation” value (Bacillus megaterium; 0,030% BBG, Octenidin 0%) was “+”, the “Bakterienwachstum nach 24 h Inkubation” value (Paenibacillus sp.; 0,007% BBG + Octenidin 0,01%) was “-” and the “Bakterienwachstum nach 24 h Inkubation” value (Paenibacillus sp.; 0,007% BBG + Octenidin 0,002%) was “-”. The “Bakterienwachstum nach 24 h Inkubation” value (Paenibacillus sp.; 0,007% BBG + Octenidin 0,003%) was “-”, the “Bakterienwachstum nach 24 h Inkubation” value (Paenibacillus sp.; 0,007% BBG + Octenidin 0,005%) was “-” and the “Bakterienwachstum nach 24 h Inkubation” value (Paenibacillus sp.; 0,007% BBG + Octenidin 0,007%) was “-”. The “Bakterienwachstum nach 24 h Inkubation” value (Paenibacillus sp.; 0,007% BBG + Octenidin 0,009%) was “-”, the “Bakterienwachstum nach 24 h Inkubation” value (Paenibacillus sp.; 0,007% BBG, Octenidin 0%) was “+” and the “Bakterienwachstum nach 24 h Inkubation” value (Paenibacillus sp.; 0,015% BBG + Octenidin 0,01%) was “-”. For the same molecule, the “Bakterienwachstum nach 24 h Inkubation” value (Paenibacillus sp.; 0,015% BBG + Octenidin 0,002%) was “+”, the “Bakterienwachstum nach 24 h Inkubation” value (Paenibacillus sp.; 0,015% BBG + Octenidin 0,003%) was “+” and the “Bakterienwachstum nach 24 h Inkubation” value (Paenibacillus sp.; 0,015% BBG + Octenidin 0,005%) was “-”. The “Bakterienwachstum nach 24 h Inkubation” value (Paenibacillus sp.; 0,015% BBG + Octenidin 0,007%) was “-”, the “Bakterienwachstum nach 24 h Inkubation” value (Paenibacillus sp.; 0,015% BBG + Octenidin 0,009%) was “-” and the “Bakterienwachstum nach 24 h Inkubation” value (Paenibacillus sp.; 0,015% BBG, Octenidin 0%) was “+”. The “Bakterienwachstum nach 24 h Inkubation” value (Paenibacillus sp.; 0,030% BBG + Octenidin 0,01%) was “-”, the “Bakterienwachstum nach 24 h Inkubation” value (Paenibacillus sp.; 0,030% BBG + Octenidin 0,002%) was “+” and the “Bakterienwachstum nach 24 h Inkubation” value (Paenibacillus sp.; 0,030% BBG + Octenidin 0,003%) was “+”. For the same molecule, the “Bakterienwachstum nach 24 h Inkubation” value (Paenibacillus sp.; 0,030% BBG + Octenidin 0,005%) was “+”, the “Bakterienwachstum nach 24 h Inkubation” value (Paenibacillus sp.; 0,030% BBG + Octenidin 0,007%) was “+” and the “Bakterienwachstum nach 24 h Inkubation” value (Paenibacillus sp.; 0,030% BBG + Octenidin 0,009%) was “+”. The “Bakterienwachstum nach 24 h Inkubation” value (Paenibacillus sp.; 0,030% BBG, Octenidin 0%) was “+”.
